Laboratory results taken from patent US7749491B2, “Compounds and methods to enhance rAAV transduction” (priority 2003, dated 2010).

Assays:
HeLa cells [1] = assay: AAV2 FLAG-Luc transduction of HeLa cells (luciferase screen of agents); assay type: cell-based
Text: A. To screen for agents that enhance rAAV transduction, any number of cells can be used. A range of concentrations of the agent to be tested can be determined based on, for instance desirable profiles of the agent, desirable toxicity profiles of the agent and/or concentration of the agents employed in vivo. The usefulness of the cell type chosen for the screen can be confirmed by testing compounds, e.g., proteosome inhibitors described in Example 1 such as LLnL and ZLL which are known to increase rAAV transduction. For example, a AAV2 FLAG-Luc vector was employed to transduce HeLa, ferret fibroblasts, IB3 and Huh (liver) cells in the presence or absence of the proteosome inhibitor MG132. MG132 was confirmed to enhance AAV transduction in all cell types tested: HeLa cell transduction was enhanced about 500-fold at 80 μM, and 200-fold at 40 μM, MG132; ferret fibroblast cell transduction was enhanced about 200-fold at 20 μM, and 17-fold at 4 μM, MG132; IB3-1 cell transduction was enhanced about 30 to 70-fold at 20 to 80 μM MG132; and Huh-7 cell transduction was enhanced about 15-fold at 20 to 80 μM MG132. There was no difference in rAAV transduction efficiency in HeLa cells when either DMSO or ETOH was used as a vehicle for MG132. B. HeLa cells were selected to screen for additional agents that enhance rAAV transduction, although any cell strain or line; or primary cells, may be employed. […] The range of concentrations of the agents to be tested were selected based on solubility profiles, toxicity profiles and/or concentrations previously employed in vivo.
HeLa cells were infected for 2 hours with an MOI of 100 rAAV in the presence of agents, e.g., ritonavir (Norvir) (1, 10 and 100 μM), cyclosporin A (2.5, 25 and 250 μg/ml), epoxomicin (1, 10 and 50 μM), alcacinomycin A (5, 50 or 500 μM), chymostatin (1, 10 and 100 μM), bestatin (1, 10 and 100 μM), doxorubicin (adriamycin) (0.1, 1 and 10 μM), camptothecin (camptosar) (1, 10 and 100 μM), eicosapentanoic acid (1, 10 and 100 μM), tannic acid (2, 20, 200 and 2000 μM), simvastatin, prodrug (2, 20 and 200 μM), cisplatin (0.2, 2 and 20 μg/mL), and chloroquine (4, 40 and 400 μM). Forty-eight hours after infection, cells were harvested for analysis. rAAV transduction was measured by removing the media from the cell cultures, adding 100 μL reporter lysis buffer (RLB) and freezing. The supernatant was thawed and transferred to microfuge tubes, freeze thawed an additional 2 times, clarified by centrifugation for 10 minutes and then analyzed for reporter gene expression on the luminometer. Protein was determined by Bradford analysis and results were expressed as relative light units per mg protein (RLU/mg).
Based on results with doxorubicin, a small number of FDA approved anthracyclines were tested for their relative in vitro and in vivo activities on AAV transduction. HeLa cells were infected with 100 ppc AAV2FLAG-Luc for 2 hours in the presence of different anthracyclines, e.g., doxorubicin, daunarubicin (Cerubidine), epirubicin (Ellence™), and idarubicin (Idamycin®), and cells harvested 48 hours later. The anthracyclines were pharmaceutical grade, and prepared according to the manufacturer's instructions. Prior to use, the agents were diluted in sterile water to an equal mass, e.g., 0.6 μg/mL, 3 μg/mL and 6 μg/mL. For example, 3 μg/mL idamycin increased luciferase expression by over 5000-fold while doxorubin increased luciferase expression by 58-fold. Generally, the potency was as follows: idarubicin>daunarubicin>epirubicin>doxorubicin.

A549 cells = assay: AV2Luc / AV2/5Luc transduction of A549 cells with LLnL / doxorubicin; assay type: cell-based, human
ferret fibroblast = assay: rAAV transduction of ferret fibroblasts with LLnL / doxorubicin; assay type: cell-based; conditions: for concentration at which transduction is enhanced: ferret fibroblast
Protocol: (§1) C. To determine whether combinations of agents that enhance rAAV transduction efficiency have synergistic or additive effects when used in combination, cells were contacted with the proteosome modulator, doxorubicin, and the proteosome inhibitor Z-LLL or LLnL. Different AAV vectors were tested, including splicing vectors and pseudotyped rAAV. Viral stocks utilized were as follows: Av2RSVluc, 5×10^8 particle/μl; Av2RSVlucCap5 (also referred to as Av2/5 CMVLuc), 2×10^9 particle/μl; Av2CMVluc, 1.3×10^9 particle/μl; and Av2CMVlucCap5, 1.1×10^9 particle/μl. Combinations of agents were compared to the agents used alone to determine the efficiency of transduction. LLnL was used at 40, 200 or 400 μM, Z-LLL at 4 μM and doxorubicin at 0.5 or 1 μM when employed alone. When a combination of LLnL and doxorubicin was used, LLnL was used at 4, 10, 20, 40, 200 or 400 μM and doxorubicin at 1 or 5 μM. The apical surface of polarized airway epithelia, HeLa cells or ferret fibroblast was contacted with the agents and rAAV (5×10^9 particles per well).

[2] = tested on: polarized human airway epithelia; assay: Luciferase rAAV2 / rAAV5-capsid transduction of polarized human airway epithelia; assay type: cell-based; conditions: for enhancement of transduction from the apical surface: LLnL 40 μM and/or Dox 5 μM at the time of infection; for concentration at which transduction is enhanced: polarized airway epithelial cells
IB3 cells = assay: AV2Luc / AV2/5Luc transduction and nuclear uptake in IB3 cells; assay type: cell-based, human; conditions: rAAV2-infected IB3 cells; 40 μM LLnL or 1 μM Dox; 24 hours
Protocol: LLnL and Z-LLL are two tripeptidyl aldehydes shown to inhibit calpains, cathepsins, cysteine proteases as well as the chymotrypsin-like protease activity of proteasomes (Wagner et al., 2002; Donkor, 2000; Sasaki et al., 1990). […] Both classes of proteasome inhibitors bind tightly to the proteasome complex. Dose response curves for these two proteasome-modulating agents were evaluated on IB3, A549, Hela, and primary fibroblasts. The responses were consistent for a number of cell lines and for three different promoters driving luciferase expression. For one set, CMV-driven luciferase constructs with an AAV2-based genome were employed that were packaged into AV2 or AV5 capsids. Cells were infected at various doses of AV2Luc and AV2/5Luc (MOIs 100 to 1000 particles/cell). At the time of infection, cells were treated with various concentrations of LLnL or Doxorubicin and gene expression was assayed at 24 hours post-infection. The effect of proteasome inhibitors on nuclear uptake of virus was evaluated using a previously-described protocol for fractionating viral DNA in the cytoplasm and nucleus (Xiao et al., 2002). Viral DNA content in the cytoplasmic and nuclear fractions was then evaluated by slot blot hybridization against a Luciferase DNA probe.

HeLa cells [3] = assay: Luciferase rAAV transduction of HeLa cells with LLnL / doxorubicin; assay type: cell-based
Protocol: as §1

[4] = tested on: polarized human bronchial epithelial cells; conditions: hypotonic EGTA solution; cited from earlier work
[5] = Toxicity of proteasome inhibitors in mice; assay type: in vivo, mouse; conditions: 10, 100, and 1000 fold higher effective doses; intra-tracheal and systemic (IV) delivery
Protocol: Long-term enhancement of rAAV transduction by proteasome inhibitor in vivo. To evaluate the potential utility of proteasome inhibitors for in vivo gene therapy, both the toxicity and efficacy of these agents for in vivo rAAV mediated gene transfer in the mouse lung was tested. To assess the toxicity of these proteasome inhibitors in mice, 10, 100, and 1000 fold higher effective doses of LLnL or Z-LLL were administered than used to induce gene transfer in polarized airway cells, using both intra-tracheal and systemic (IV) delivery. No toxicity was indicated by histologic evaluation of the lung and liver or was evidenced by the death of animals. To investigate whether these proteasome inhibitors could improve rAAV transduction in vivo, AV.LacZ (5×10^10 particles) was delivered either alone or in the presence of 400 μM Z-LLL by intranasal administration. Mouse lungs were harvested at 3, 10 and 150 days post-infection to evaluate short and long term effects. […] Targeted transgene expression was predominantly confined to the conducting airways, rather than in the parenchyma. Alveolar cells were rarely transduced. […] The range of transgene expression in distal and proximal airways was 0 to 4% and 5 to 18%, respectively.

[6] = tested on: polarized human bronchial epithelial cells; assay type: cell-based
Protocol: Primary culture of human bronchial epithelia and reagents utilized. Primary human airway epithelial cells were collected by enzymatic digestion of bronchial samples from lung transplants, as previously described (Kondo et al., 1991; Zabner et al., 1996). Isolated primary airway cells were seeded at a density of 5×10^5 cells/cm^2 onto collagen-coated Millicell-HA culture inserts (Millipore Corp., Bedford, Mass.). Primary cultures were grown at the air-liquid interface for more than 2 weeks, by which time differentiation into a mucociliary epithelium occurs. The culture medium, used to feed only the basolateral side of the cells, contained 49% DMEM, 49% Ham's F12 and 2% Ultraser G (BioSepra, Cedex, France). Dimethyl Sulphoxide (DMSO), camptothecin (Camp), etoposide (Etop), aphidicolin (Aphi), hydroxyurea (HU) and genistein (Geni) were purchased from Sigma (St. Louis, Mo.). Tripeptidyl aldehyde proteasome inhibitors N-Acetyl-L-Leucyl-L-Leucyl-Norleucine (LLnL) and benzyloxycarbonyl-L-leucyl-L-leucyl-L-leucinal (Z-LLL) were purchased from Calbiochem-Novabiochem Corporation (La Jolla, Calif.). Ubiquitin ligase (E3) inhibitors were obtained from Bachem Bioscience Inc. (King of Prussia, Pa.). Anti-AAV capsid monoclonal antibody (Anti-VP1, 2 and 3) was purchased from American Research Products (Belmont, Mass.) and anti-ubiquitin antibody was purchased from Santa Cruz Biotechnology Inc. (Santa Cruz, Calif.).
Transduction of polarized airway epithelial cells and primary human fibroblasts. rAAV infection of fully differentiated bronchial cells was performed as described in Duan et al. (1998). For infections from the apical surface of the airway cells, 5 μl rAAV was mixed with 50 μl of culture media and applied directly onto the apical compartment of Millicell inserts (MOI=10,000 particles/cell). During apical infection, the basolateral side of the Millicell was continuously bathed in culture media. Gene transfer to the basal side was performed by inverting Millicell inserts and applying viral vector to the bottom of the supporting filter membrane in a 50 μl volume for 2 hours. Subsequently, Millicell inserts were returned to the upright position, in the continued presence of the original viral inoculum plus an additional 450 μl of media. For both apical and basolateral infections, rAAV containing media was removed after 24 hours and replaced with either fresh culture media (for the basal side) or exposed to air (for the apical side). To test the effect of different agents on the efficiency of AAV transduction in polarized airway cells, 1 μl of each solution was mixed with AAV prior to infection of airway epithelia. Agents were usually presented during the 24 hours AAV infection period unless indicated otherwise. Most of the agents were dissolved in DMSO except for hydroxyurea (dissolved in phosphate buffered saline), H-Leu-Ala-OH (dissolved in 0.9% glacial acetic acid) and H-His-Ala-OH (dissolved in 50% methanol). The working concentrations of the agents were as follows: 0.1 μM camptothecin, 10 μM etoposide, 5 μg/ml aphidicolin, 40 mM hydroxyurea, 50 μM genistein, 40 μM LLnL and 4 μM Z-LLL. When the ubiquitin ligase (E3) inhibitors (H-Leu-Ala-OH and H-His-Ala-OH) were used, airway cells were pretreated with a combination of both inhibitors at a final concentration of 2 mM for 60 minutes prior to infection, followed by the continued presence of inhibitor (0.2 mM) during the entire 24 hours infection period from the basolateral surface. Studies involving EGTA treatment were performed by transiently treating the apical membrane of polarized airway epithelia with 3 mM EGTA in water for 10 minutes (Duan et al., 1998). Following hypotonic EGTA treatment, cultures were washed twice with culture medium and infected with rAAV in the presence or absence of 40 μM LLnL. Human primary fibroblast cells (P4) were maintained in 10% fetal bovine serum (FBS), 1% penicillin and streptomycin, and 89% DMEM. […]

[7] = tested on: primary fetal fibroblasts; assay: rAAV transduction of primary fetal fibroblasts with LLnL, Dox or both; assay type: cell-based; conditions: LLnL by itself
Protocol: Hela, A549, IB3, and primary fetal fibroblasts were evaluated for AV2Luc and AV2/5Luc transduction in the presence of LLnL, Dox, or LLnL+Dox at various concentrations. The data shown is from Hela and A549 cells at the most optimal dose combination that induces rAV2Luc transduction to a greater extent than each compound alone.

COc1cccc2c1C(=O)c1c(O)c3c(c(O)c1C2=O)C[C@@](O)(C(=O)CO)C[C@@H]3O[C@H]1C[C@H](N)[C@H](O)[C@H](C)O1 [doxorubicin]
increase of luciferase expression (HeLa cells [1]; 3 μg/mL, 100 ppc AAV2FLAG-Luc 2 hours, harvested 48 hours): 58 fold
outcome in cell line screening (HeLa cells [1]; HeLa screen): tested positive
concentration at which transduction is enhanced (A549 cells): 5 µM
concentration at which transduction is enhanced (ferret fibroblast): 1 µM
enhancement of transduction with lacZ splicing vectors (ferret fibroblast; ferret fibroblasts infected with lacZ splicing vectors): about 100 fold
enhancement of transduction from the apical surface [2]: 100 fold
concentration at which transduction is enhanced [2]: 5 µM
fraction of viral DNA in the nuclear compartment (IB3 cells): significantly increased the fraction of viral DNA in the nuclear compartment
concentration at which transduction is enhanced (HeLa cells [3]): 1 µM

O=C(O)CN(CCOCCOCCN(CC(=O)O)CC(=O)O)CC(=O)O [EGTA]
increase of AAV transduction from the apical surface [4]: 7 to 10 fold

N-acetyl-L-leucinyl-L-leucinal-L-norleucinal [LLnL]
toxicity (histologic evaluation of lung and liver, death of animals) [5]: No toxicity
concentration at which transduction is enhanced (A549 cells): 200 to 400 µM
time of peak of augmentation in AAV transduction, mucosal co-administration ([6]; LLnL and rAAV to the mucosal surface): 22 days
augmentation in transgene expression ([6]; applied to the serosal surface along with rAAV, 2 days post infection, LLnL 40 μM): greater than 200 fold
toxicity to cells on continual administration ([6]; continual administration, transgene expression ablated by 10 days): toxic to cells
time of transient peak in gene expression, serosal infection ([6]; rAAV from the serosal surface in the presence of LLnL): 72 h
concentration at which transduction is enhanced (ferret fibroblast): 40 µM
enhancement of transduction from the apical surface [2]: 10 fold
polarity of enhancement of AV2Luc and AV2/5Luc transduction ([2]; LLnL 40 μM, 5 and 14 days): only apical transduction for both AAV serotypes was enhanced
effect on AV2.RSVluc transduction ([2]; apical and basolateral infection): augments AV2.RSVluc transduction from the apical and basolateral surfaces
concentration at which transduction is enhanced [2]: 40 µM
increase of AV2.RSVlucCap5 transduction ([2]; virus applied to the apical surface): 12 fold
induction of transduction [7]: 10 fold
fraction of viral DNA in the nuclear compartment (IB3 cells): significantly increased the fraction of viral DNA in the nuclear compartment
concentration at which transduction is enhanced (HeLa cells [3]): 40 µM
